The test system of assay [1] is S. cerevisiae RPL19A-GFP strain, flow cytometry fluorescence, 3 h. Nature of the assay: TOR pathway RPL19A-GFP modulators, concentration series – cell-based, S. cerevisiae, flow cytometry, MLPCN hits, dose response (AID 2740).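 On GFP fluorescence, lower = active: background is signal of the same compound in parental non-GFP s288c yeast.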
Test in assay [2]: as above
The conditions noted are these: S. cerevisiae RPL19A-GFP strain, flow cytometry fluorescence, 3 h; at 33 µM (top of the series).

Values joined by “and” are separate entries in the source; they are usually repeats but may differ in a detail not shown here. Identical values can stand only once. Active and inactive are the calls of the source.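 How the source made its calls: active means compounds whose fitted half-maximal concentration for changing the GFP signal is at or below a set limit; inactive means the rest.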

As to `O=C1C2C3C=CC(CO)(O3)C2C(=O)N1c1ccc(-c2ccccc2)cc1` (centres undefined), the EC50 in assay [1] was 10.2 µM.

Turning to `CC1(C)C[C@H]2C=C(C=O)[C@]3(C=O)C[C@]3(C)[C@H]2C1`, in assay [1], the 50% effective concentration (EC50) is 3.62 µM. On the same count and under the same terms, as for `Cc1ccc(C(=O)O)cc1N=Cc1cc(Br)cc(Br)c1O`, the figure is 11.8 µM.

As for `CCc1ccc2c(c1)/C(=C/C(=O)c1cccs1)C(=O)N2`, the EC50 in assay [1] is 4.42 µM.

On to `C#CCOCCOCCOCCNc1nc(N2CCN(C(=O)CCCCCCCCCCNC(=O)[C@H](CCCCN)n3cc(CCO)nn3)CC2)nc(N2CCN(C(=O)CCCCCCCCCCNC(=O)[C@H](CCCN=C(N)N)n3cc(C[C@@H](C)CC)nn3)CC2)n1`, for which the EC50 in assay [1] is 10 µM.

Turning to `O=[N+]([O-])c1cc(Cl)cc(/C=N\Nc2ccccn2)c1O`, the EC50 in assay [1] was 8.02 µM. For `O=C1C=CC(=O)N1c1ccc(O)cc1`, the EC50 in assay [1] is 12.6 µM. Consider `CCOC(=O)c1c(C)oc2c1c(C(c1cccnc1)N1CCOCC1)c(O)c1ccccc12` (centres undefined), for which the EC50 in assay [1] is 13.7 µM.

For the compound `CNC(CC(=O)c1ccc([N+](=O)[O-])cc1)C(Cl)(Cl)Cl` (centres undefined), in assay [1], the EC50 is 6.58 µM. On the same count and under the same terms, as for `O=C1C=CC(=O)N1c1ccc(Sc2ccc([N+](=O)[O-])cc2)cc1`, the figure is 10.2 µM. Regarding `CSc1nnc2c3cc(F)ccc3n(C)c2n1`, the half-maximal effective concentration (EC50) in assay [1] was 1.19 µM. Still for that read-out and setting: as for `Cc1ccc(S(=O)(=O)ON2C(=O)c3ccccc3C2=O)c(C)c1`, the figure is 14 µM; as for `Cc1ccc(NN2C(=O)C=C(c3ccc(Cl)cc3)C2=O)cc1`, 1.28 µM. The same measure, in the same setting: as for `C[C@H]1C[C@@H](C)C(=O)[C@@H]([C@H](O)CC2CC(=O)NC(=O)C2)C1`, the figure is 0.57 µM. Turning to `Cn1ncc2c(O/N=C(\N)c3ccc(C(C)(C)C)cc3)ncnc21`, in assay [1], the EC50 was 13 µM. For the compound `O=C(C#Cc1ccccc1)c1ccco1`, the concentration giving a half-maximal response (EC50) in assay [1] was 25.6 µM. Same read-out and setting: the figure for `CC(Oc1ccc(Br)cc1)C(=O)Nc1nc(-c2ccccn2)cs1` (centres undefined) is 20.5 µM. The same measure, in the same setting: as for `CCOc1ccc(N2C(=O)/C(=C\c3cccs3)C(=O)NC2=S)cc1`, the figure is 5.66 µM. Same read-out and setting: the figure for `O=C(/C=C/c1ccccn1)c1cc(Br)ccc1O` is 8.96 µM. Take `O=C(Nc1ccccc1)c1nnsc1S(=O)(=O)c1ccc(Cl)cc1`: the 50% effective concentration (EC50) in assay [1] was 2.5 µM. Still for that read-out and setting: the figure for `Cc1cccc(C)c1NC(=O)C(Cl)C(=O)c1ccccc1` (centres undefined) is 1.9 µM. For `N/C(=N\OC(=O)c1cc(Br)ccc1Cl)c1ccccn1`, in assay [2], the GFP fluorescence, lower = active (kMESF (background-subtracted)) is 39.8 (inactive). Same read-out and setting: as for `Cc1ccc(C(CC(=O)O)NC(=O)c2ccc(S(=O)(=O)N3CC(C)OC(C)C3)cc2)cc1` (centres undefined), the figure is 39.2 (inactive). On to `CCOC(=O)C1=C(O)c2ccccc2C(=O)/C1=C\c1ccc(C)cc1`, for which the GFP fluorescence, lower = active (kMESF (background-subtracted)) in assay [2] is -7.18 (inactive).

As to `Cc1cc(Br)c2c(c1)/C(=C/C(=O)c1cccs1)C(=O)N2`, the GFP fluorescence, lower = active (kMESF (background-subtracted)) in assay [2] was 40.3 (inactive).

With `Oc1c(Br)cc(Br)cc1C=Nc1ccc2[nH]ncc2c1`, the GFP fluorescence, lower = active (kMESF (background-subtracted)) in assay [2] was 36 (inactive). Consider `Cc1cccc(OCCN2CSC(=S)N(C)C2)c1`, for which the GFP fluorescence, lower = active (kMESF (background-subtracted)) in assay [2] is 40.5 (inactive). On the same count and under the same terms, as for `CCOc1ccc(C(Nc2cccnc2)c2cc(Cl)c3cccnc3c2O)cc1` (centres undefined), the figure is 28.3 (inactive). Still for that read-out and setting: as for `O=C(Oc1ccnc2cc(Cl)ccc12)N1CCOCC1`, the figure is 37.6 (inactive); as for `CC(Oc1cccc(Cl)c1)C(=O)Nc1nc(-c2ccccn2)cs1` (centres undefined), 30 (inactive); as for `Cc1ccccc1N=Nc1ccc(O)c2ncccc12`, 36.9 (inactive). For the compound `CN(C)NC(=S)Nc1ccc(S(=O)(=O)N2CCCCC2)cc1`, in assay [2], the GFP fluorescence, lower = active (kMESF (background-subtracted)) is 44.8 (inactive). Consider `Nc1ccccc1C#CC(=O)c1ccccc1`, for which the GFP fluorescence, lower = active (kMESF (background-subtracted)) in assay [2] was 21 (inactive). Still for that read-out and setting: the figure for `Cn1c(=O)c(C(=O)NNC(=O)c2ccc(Br)cc2)c(O)c2ccccc21` is 22.3 (inactive). On to `COc1ccc2c(c1)c(/C=C/c1cc[n+](C)cc1)cn2C`, for which the GFP fluorescence, lower = active (kMESF (background-subtracted)) in assay [2] was 40 (inactive). As for `CN(C)c1ccc(N=Cc2nc(-c3ccccc3)oc2OC(=O)c2cccc(Cl)c2)cc1`, the GFP fluorescence, lower = active (kMESF (background-subtracted)) in assay [2] was 44.1 (inactive). Still for that read-out and setting: as for `CCC(=O)Nc1ccc(NC(=O)c2cc3ccccc3o2)c(OC)c1`, the figure is 40.4 (inactive); as for `CCOC(=O)c1ccc(N=Cc2nc(-c3ccccc3)oc2OC(C)=O)cc1`, 41.6 (inactive); as for `COc1ccccc1N1C(=O)c2cccc3c(C(=O)O)ccc(c23)C1=O`, 44.8 (inactive). The same measure, in the same setting: the figure for `Cc1ccc(/C(N)=N/OC(=O)c2ccc(F)cc2)cc1` is 43.7 (inactive); for `CCOc1ccc(N2C(=O)C(Cl)=C(Nc3ccccc3O)C2=O)cc1` it is 45.1 (inactive); for `O=[N+]([O-])c1ccc(N=Nc2c(Cl)cc(O)cc2Cl)cc1` it is 37.9 (inactive). On the same count and under the same terms, as for `O=C1C(Cl)=C(Nc2ccccc2O)C(=O)N1CCc1ccccc1`, the figure is 42.1 (inactive); as for `O=C1C2C3C=CC(CO)(O3)C2C(=O)N1c1ccccc1-c1ccccc1` (centres undefined), 20.9 (inactive). Take `O=C1c2cccc3c([N+](=O)[O-])ccc(c23)C(=O)N1CCc1ccccn1`: the GFP fluorescence, lower = active (kMESF (background-subtracted)) in assay [2] is 47.1 (inactive).

On to `CCCc1ccc(OCC(=O)NNC(=S)NC(=O)c2ccco2)cc1`, for which the GFP fluorescence, lower = active (kMESF (background-subtracted)) in assay [2] is 30.3 (inactive). `CC(c1ccccc1)N1C(=O)/C(=C/c2ccncc2)SC1=S` (centres undefined): in assay [2], the GFP fluorescence, lower = active (kMESF (background-subtracted)) is 20.6 (inactive). Regarding `[O-][n+]1cccc2c(Br)cc(Br)c(O)c21`, in assay [2], the GFP fluorescence, lower = active (kMESF (background-subtracted)) was 42.9 (inactive). On the same count and under the same terms, the figure for `CCOC(=O)CCS(=O)(=O)c1nc(-c2ccccc2)cc(C(F)(F)F)n1` is 33.2 (inactive); for `C=C1C(O)[C@@H]2O[C@]3(CC[C@H](/C=C/C(C)[C@@H]4CC(C)=CC5(O[C@H](C[C@@](C)(O)C(=O)O)CCC5O)O4)O3)CC[C@H]2O[C@@H]1C(O)CC(C)[C@H]1OC2(CCCCO2)CCC1C` (some centres undefined) it is 41.3 (inactive). For `CCCCCCCCC/C(=N\O)c1ccccn1`, the GFP fluorescence, lower = active (kMESF (background-subtracted)) in assay [2] is 38.8 (inactive). On the same count and under the same terms, the figure for `Cc1ccc(O)c(N=Nc2nccs2)c1` is 32.1 (inactive).

With `CCOC(=O)CSC1=NC(=O)/C(=C/c2ccc(Br)cc2)S1`, in assay [2], the GFP fluorescence, lower = active (kMESF (background-subtracted)) was 38.5 (inactive). As to `Oc1ccc(N=Nc2ccccc2)o1`, the GFP fluorescence, lower = active (kMESF (background-subtracted)) in assay [2] was 42.3 (inactive). Still for that read-out and setting: the figure for `O=C1N(c2ccccc2C(F)(F)F)O[C@]1(c1ccccc1)C1CCCC1` is 36.6 (inactive); for `Cc1c(Br)c(=O)oc2c(Br)c(O)c(O)cc12` it is 38.1 (inactive). Same read-out and setting: as for `COC(=O)c1cc(N2C(=O)C3C(C2=O)C2(C)C=CC3(C)O2)ccc1Cl` (centres undefined), the figure is 28.8 (inactive). Same read-out and setting: the figure for `Cc1ccc(NC(=O)c2ccc(Cl)c(N3C(=O)C=CC3=O)c2)cc1` is 22.4 (inactive); for `CC(C)[C@]1(c2ccccc2)ON(c2ccccc2C(F)(F)F)C1=O` it is 36 (inactive). In the case of `Cc1cccc2c1NC(=O)/C2=C\C(=O)c1cccs1`, the GFP fluorescence, lower = active (kMESF (background-subtracted)) in assay [2] is 34.4 (inactive). For the compound `COc1cc(C=C2C(=O)c3ccccc3C2=O)cc(OC)c1`, in assay [2], the GFP fluorescence, lower = active (kMESF (background-subtracted)) was 41.6 (inactive). On the same count and under the same terms, as for `CCN(CC)c1ccc2cc(-c3nc(-c4ccc(OC)cc4)cs3)c(=O)oc2c1`, the figure is 40 (inactive). As for `CC(C)Oc1ccc(C(=O)/C=C2/C(=O)Nc3ccccc32)cc1`, the GFP fluorescence, lower = active (kMESF (background-subtracted)) in assay [2] is 29 (inactive). The same measure, in the same setting: the figure for `Cc1cc(C)c2c(c1)/C(=C/C(=O)c1ccc(Br)s1)C(=O)N2` is 46.6 (inactive); for `COc1ccc(C2=CC3=C(Br)C(=O)C(C)(O)C(=O)C3=CO2)cc1` (centres undefined) it is 1.92 (inactive).

For the compound `CN(C)/C=C/C(=O)c1ccc(-c2ccc(Cl)cc2Cl)o1`, the GFP fluorescence, lower = active (kMESF (background-subtracted)) in assay [2] is 40.9 (inactive). Regarding `Cc1nn2c(NCc3ccccn3)c3c(nc2c1-c1ccccc1)CCC3`, the GFP fluorescence, lower = active (kMESF (background-subtracted)) in assay [2] was 44.3 (inactive).

For `COc1cc(N=c2ssnc2Cl)c(OC)cc1Cl`, in assay [2], the GFP fluorescence, lower = active (kMESF (background-subtracted)) is 22.5 (inactive) and 23.2 (inactive). Take `Cc1cccc(C(=O)NC(=S)NNC(=O)Cc2ccccc2)c1`: the GFP fluorescence, lower = active (kMESF (background-subtracted)) in assay [2] is 52.4 (inactive). On the same count and under the same terms, the figure for `CCCCC(=O)NC(=S)NNC(=O)CCc1ccccc1` is 37.8 (inactive). Same read-out and setting: as for `N/C(Cc1ccc(Cl)cc1Cl)=N\OC(=O)c1ccccc1`, the figure is 28.6 (inactive); as for `O=C(COc1c(Br)cc(Br)c2cccnc12)N1CCc2ccccc2C1`, 45.4 (inactive). Still for that read-out and setting: the figure for `Cc1ccccc1C(=O)NNC(=S)NC(=O)c1ccc(Cl)cc1Cl` is 45.9 (inactive); for `CCOC(=O)CSC1=NC(=O)/C(=C/c2ccc(OC)cc2)S1` it is 43.8 (inactive). Regarding `O=C(Oc1c(Cl)cc(Cl)c2cccnc12)c1ccco1`, the GFP fluorescence, lower = active (kMESF (background-subtracted)) in assay [2] is 34.9 (inactive). In the case of `O=C(/C=C/c1ccccc1[N+](=O)[O-])c1ccccc1Br`, the GFP fluorescence, lower = active (kMESF (background-subtracted)) in assay [2] was 44.1 (inactive).

On to `O=C(c1ccc(Cl)cc1)N1CCN(c2cccc3[nH]ccc23)CC1`, for which the GFP fluorescence, lower = active (kMESF (background-subtracted)) in assay [2] was 41.9 (inactive).

For the compound `COc1cc(NC(=O)c2cccc(C)c2)ccc1NC(=O)c1cc2ccccc2o1`, the GFP fluorescence, lower = active (kMESF (background-subtracted)) in assay [2] was 39.6 (inactive).

Turning to `CC(C)(C)C(=O)NC(=S)NNC(=O)c1ccc(-c2ccccc2)cc1`, the GFP fluorescence, lower = active (kMESF (background-subtracted)) in assay [2] is 40.7 (inactive).

For the origin of these results see PubChem BioAssay AID2740 (NMMLSC, 2010).
